Source: US6887878B2, “KMST isoeugenol derivatives and pharmaceutical activity” (Ing-Jun Chen, priority 2003, dated 2005)
Where “and” joins values, the source holds several entries; their conditions need not be identical. Identical values can stand only once.

Experiments:
[1] = tested on: IL-1β, IL-6, IFN-γ and TNF-α; experiment: LPS-induced plasma cytokine immunoreactivity; format: in vivo, rat; settings: 1 mg kg−1, i.v., pretreatment
Description: In brief, Wistar rats weighing 250-300 g were anesthetized with pentobarbital sodium (50 mg kg^−1, i.p.). Following tracheal cannulation, systemic arterial BP and HR were recorded from the femoral artery by a pressure transducer (model P10EZ; Spectramed, Oxnard, Calif., U.S.A.) connected to a recorder (GOULD, Valley View, Ohio, Model P50). Body temperature was maintained at 37° C. by an electric heating pad. A femoral vein was cannulated for intravenous injection of drugs and LPS (10 mg kg^−1).
Blood was collected from venous cannula, injected into ice-cold heparinized Eppendorf tubes and centrifuged at 1500 rpm for 10 min at 4° C. Plasma supernatant was stored at −70° C. until analyzed. Solid phase enzyme immunoassay that specifically detects murine IL-1β, IL-6, IFN-γ and TNF-α was used with a detection limit of >10 pg/ml (Endogen, U.S.A). Pre-treatment with KMST and other agents was performed 15 minutes before intravenous injection of LPS. Blood was collected from venous cannula. Blood glucose was measured with a glucose test strip (Glucotide, Bayer, U.S.A) at 1, 3 and 5 hours.

5-HT2A receptor = 5-HT2A receptor (Rattus norvegicus, UniProt P14842); experiment: [3H]ketanserin receptor binding in rat cortex; design: from tissue; host or cells: Wistar rat cortex membranes; species or system Wistar rat
Description: The homogenate was pressure filtered through muslin. Filtrate was centrifuged at 1000 g for 10 min. […] Protein content was determined by Bradford's method.

β1-adrenoceptor = target: T1, β1-adrenoceptor (Rattus norvegicus, UniProt P18090); experiment: isoprenaline-induced positive inotropic effects in electrically stimulated rat left atria (pA2); design: species or system Wistar rat; settings: Schild plot, mean ± SEM of eight, listed as KMST
T1 construct: Left atria were dissected from the hearts and mounted in a 10 ml organ bath; from tissue; host or cells: rat left atria, electrically driven
Description: Rats of either sex weighing 350-500 g were sacrificed after mild anesthesia with ether, and their hearts were quickly excised. Left atria were dissected from the hearts and mounted in a 10 ml organ bath with one end fixed and the other end connected to a force displacement transducer (Grass, Model FT03). […] Atria were pre-stretched to a baseline tension of 0.5 g and equilibrated for 60 min in an aerated Krebs solution before starting experimental protocols. Atria were driven at 2-s intervals via two platinum electrodes on each side. An incubation time of 30 min was allowed for the test compound.

T1 sequence (P18090 whole entry): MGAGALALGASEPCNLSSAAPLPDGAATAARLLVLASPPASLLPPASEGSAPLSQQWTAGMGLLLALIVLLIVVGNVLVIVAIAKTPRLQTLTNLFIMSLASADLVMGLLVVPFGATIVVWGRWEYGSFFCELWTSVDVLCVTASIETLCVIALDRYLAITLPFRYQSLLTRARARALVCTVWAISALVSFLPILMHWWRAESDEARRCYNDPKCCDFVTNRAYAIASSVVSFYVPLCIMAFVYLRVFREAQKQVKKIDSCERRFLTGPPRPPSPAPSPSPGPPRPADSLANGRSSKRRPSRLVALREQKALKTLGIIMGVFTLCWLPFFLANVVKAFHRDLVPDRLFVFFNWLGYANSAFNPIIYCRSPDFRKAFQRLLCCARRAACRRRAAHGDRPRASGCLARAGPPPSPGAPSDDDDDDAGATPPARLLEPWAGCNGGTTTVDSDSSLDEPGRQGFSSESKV
Chain of 5-HT2A receptor (P14842 whole entry): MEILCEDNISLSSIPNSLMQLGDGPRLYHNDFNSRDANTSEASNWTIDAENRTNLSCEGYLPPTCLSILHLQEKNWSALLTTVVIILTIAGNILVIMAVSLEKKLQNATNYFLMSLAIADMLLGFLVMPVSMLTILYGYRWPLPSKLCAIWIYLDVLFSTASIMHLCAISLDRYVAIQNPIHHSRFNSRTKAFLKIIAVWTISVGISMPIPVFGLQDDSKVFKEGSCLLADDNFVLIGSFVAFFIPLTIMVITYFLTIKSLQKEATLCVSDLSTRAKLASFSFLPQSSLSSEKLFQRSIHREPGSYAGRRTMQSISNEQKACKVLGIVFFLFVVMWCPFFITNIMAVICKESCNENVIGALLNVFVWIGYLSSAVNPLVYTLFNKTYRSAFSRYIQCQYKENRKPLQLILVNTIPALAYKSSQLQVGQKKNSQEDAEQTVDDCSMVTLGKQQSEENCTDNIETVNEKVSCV

CC=Cc1ccc(OCC(O)CN2CCN(c3cccc(Cl)c3)CC2)c(OC)c1 (stereo not drawn) [Compound 1]
LPS-induced elevations of IL-1β, IL-6, IFN-γ and TNF-α levels [1]: inhibited | Ki (5-HT2A receptor): 33.3 nM | β1 pA2 value (β1-adrenoceptor): 6.66±0.17 and 6.66
